Results as given in paper PMC6440464 (PeerJ, 2019).
“And” between values parts separate entries of the source, which are not always exact repeats. Equal values may be shown once. Read-outs that look alike come from different tables or passages of the source.

Assay: Pharmacokinetics study after separate oral administration in rats (HPLC-MS of plasma)
Assay type: in vivo, Sprague-Dawley rats
Conditions: for half-life: read-out: t1/2z
Experimental: A total of 15 SPF Sprague-Dawley rats (SD, male, 190–210 g) were provided by Sino-British Sippr/BK Lab Animal Company Ltd. (Shanghai, China). The rats were kept in standard conditions (22–26 °C; 40–60% relative humidity; 12 h light/dark cycle). Throughout the rearing period, the animals had access to food and water ad libitum. Animal experiments were conducted in accordance with the standard ethical guidelines of the Laboratory Animal Management Committee of Jiangsu Province (SYXK (SU) 2016-0011).
Following 1 week of adaptation, the rats were fasted for about 12 h before dosing, with free access to water. […] After administration of the first dose, blood samples were taken from the retro-orbital vein at 0, 5, 15, 30, 60, 90, 120, 180, 240, 360, 480, and 1,440 min and collected in heparinized tubes. The samples were centrifuged at 3,500 rpm for 10 min at 4 °C and the plasma was stored at −80 °C until analysis.
An Agilent 1,200 series HPLC system (Agilent Technologies, Waldbronn, Germany) equipped with a quaternary pump on-line degasser, auto-sampler and column oven, and an SL G1946D quadruple mass spectrometer (Agilent Technologies, Santa Clara, CA, USA) equipped with an electrospray ionization (ESI) source, were used for separation and detection. Data were acquired and analyzed using Agilent ChemStation Software Version A.01.00 (Agilent Technologies, Santa Clara, CA, USA).
The separation was carried out with an Amethyst C18-H column (150 × 4.6 mm, 5 μm, Sepax Technologies, Newark, DE, USA) with a guard column SB-C18 (10 × 4.6 mm, 5 μm, Phenomenex Technologies, Torrance, USA) at a constant temperature of 25 °C.
The mass spectra were acquired using ESI interfaced to a single quadrupole mass spectrometer. The ionization conditions were as follows: drying gas (N2) flow rate of 11 L/min, drying gas temperature of 350 °C, nebulizing gas (N2) pressure of 35 psi, capillary voltage of 3,500 V, quad temperature of 100 °C, and fragment voltage of 110 V. A series of m/z were monitored using a timed program according to the retention times and characteristic ions for the corresponding HPLC-MS peak obtained by scanning from m/z 100–1,000 in the standard sample.
Briefly, an aliquot of plasma sample (100 μL) was spiked with 5% formic acid (10 μL) in centrifuge tube. Subsequently, hydrochloric acid (2 mol/L, 10 μL) and IS solution (960.00 ng/mL, 20 μL) were added. Then ethyl acetate/n-butyl alcohol (1:1 v/v; 1,000 μL) was used to extract the components. The samples were then homogenized by vortex mixing and centrifuged for 10 min at 14,000 rpm. After centrifugation, 800 μL of supernatant was transferred to another centrifuge tube and the sample was evaporated to dryness. The residues were dissolved in 100 μL of methanol and centrifuged for 10 min at 12,000 rpm. 50 μL of the supernatant was transferred to the vial and an aliquot of 5 μL was injected into the HPLC-MS system for analysis.
DAS 2.0 (Chinese Pharmacological Association, Shanghai, China) was used to calculate the pharmacokinetic parameters using the non-compartment model, including the area under curve (AUC), mean residence time (MRT), half-life ( t1/2z), clearance rate (CL), maximum plasma concentration (Cmax), and time (Tmax). All results are expressed as mean ± standard deviation (SD). One way analysis of variance followed by […] was used for comparison of different groups using Graph pad prism 5 software. A p-value of <0.05 was considered statistically significant.

[1] = IQ group (oral IQ 50 mg/kg), rat plasma, labelled substance = analyte, individual rats No1-No5

Structure (SMILES): O=c1c(O[C@@H]2O[C@H](CO)[C@@H](O)[C@H](O)[C@H]2O)c(-c2ccc(O)c(O)c2)oc2cc(O)cc(O)c12 [IQ, Isoquercitrin]
- Plasma concentrations (IQ group (oral IQ 50 mg/kg), 5 min, individual rats NO. 1-5): 0.0934 µg/mL and 0.0774 µg/mL and 0.0493 µg/mL and 0.0335 µg/mL and 0.1108 µg/mL
- Plasma concentrations (IQ group (oral IQ 50 mg/kg), 15 min, individual rats NO. 1-5): 0.3981 µg/mL and 0.2105 µg/mL and 0.1113 µg/mL and 0.0464 µg/mL and 0.3803 µg/mL
- Plasma concentrations (IQ group (oral IQ 50 mg/kg), 30 min, individual rats NO. 1-5): 0.3658 µg/mL and 0.4136 µg/mL and 0.1507 µg/mL and 0.3866 µg/mL and 0.3886 µg/mL
- Plasma concentrations (IQ group (oral IQ 50 mg/kg), 60 min, individual rats NO. 1-5): 0.1335 µg/mL and 0.1563 µg/mL and 0.1140 µg/mL and 0.0299 µg/mL and 0.2027 µg/mL
- Plasma concentrations (IQ group (oral IQ 50 mg/kg), 90 min, individual rats NO. 1-5): 0.0372 µg/mL and 0.1114 µg/mL and 0.0310 µg/mL and 0.0260 µg/mL and 0.1543 µg/mL
- Plasma concentrations (IQ group (oral IQ 50 mg/kg), 120 min, individual rats NO. 1-5): 0.0000 μg/mL (3×) and 0.0534 μg/mL and 0.0884 μg/mL
- Plasma concentrations (IQ group (oral IQ 50 mg/kg), 180 min, individual rats NO. 1-5): 0.0000 µg/mL
- Plasma concentrations (IQ group (oral IQ 50 mg/kg), 240 min, individual rats NO. 1-5): 0.0000 µg/mL
- Plasma concentrations (IQ group (oral IQ 50 mg/kg), 360 min, individual rats NO. 1-5): 0.0000 µg/mL
- Plasma concentrations (IQ group (oral IQ 50 mg/kg), 480 min, individual rats NO. 1-5): 0.0000 µg/mL
- Plasma concentrations (IQ group (oral IQ 50 mg/kg), 1440 min, individual rats NO. 1-5): 0.0000 µg/mL
- AUC(0-t) [1]: 307.8 ng·h/mL and 355.8 ng·h/mL and 150.6 ng·h/mL and 180.27 ng·h/mL and 439.42 ng·h/mL
- CLz/F [1]: 2565 mL/min/kg and 2104 mL/min/kg and 4792 mL/min/kg and 3572 mL/min/kg and 1528 mL/min/kg
- Cmax [1]: 398.1 ng/mL and 413.6 ng/mL and 150.7 ng/mL and 386.6 ng/mL and 388.6 ng/mL
- MRT(0-t) [1]: 46.827 min and 41.112 min and 33.266 min and 48.488 min
- Tmax [1]: 30 min
- t1/2z [1]: 18.181 min and 30.631 min and 26.313 min and 87.922 min and 49.884 min
- Detection in rat plasma (IQ group: oral IQ 50 mg/kg): could be detected in rat plasma
- Time until which the AUC could be accessed (IQ group: oral IQ 50 mg/kg): 90 to 120 min
- CL (IQ group: oral IQ 50 mg/kg, rat plasma, mean ± SD, n = 5): 2910 ± 1290 mL/min/kg
- concentration at 180 min (male, Sprague-Dawley, rat, plasma, oral, 50 mg/kg, IQ group (oral IQ 50 mg/kg), 180 min, individual rats NO. 1-5, read-out: Plasma concentrations): 0 ng/mL
- concentration at 240 min (male, Sprague-Dawley, rat, plasma, oral, 50 mg/kg, IQ group (oral IQ 50 mg/kg), 240 min, individual rats NO. 1-5, read-out: Plasma concentrations): 0 ng/mL
- concentration at 360 min (male, Sprague-Dawley, rat, plasma, oral, 50 mg/kg, IQ group (oral IQ 50 mg/kg), 360 min, individual rats NO. 1-5, read-out: Plasma concentrations): 0 ng/mL
- concentration at 480 min (male, Sprague-Dawley, rat, plasma, oral, 50 mg/kg, IQ group (oral IQ 50 mg/kg), 480 min, individual rats NO. 1-5, read-out: Plasma concentrations): 0 ng/mL
- concentration at 1440 min (male, Sprague-Dawley, rat, plasma, oral, 50 mg/kg, IQ group (oral IQ 50 mg/kg), 1440 min, individual rats NO. 1-5, read-out: Plasma concentrations): 0 ng/mL
- MRT last (male, Sprague-Dawley, rat, plasma, po, 50 mg/kg, IQ group (oral IQ 50 mg/kg), rat plasma, labelled substance = analyte, individual rats No1-No5, read-out: MRT(0-t) (converted)): 33.3 min
- Tmax (male, Sprague-Dawley, rat, plasma, po, 50 mg/kg, IQ group (oral IQ 50 mg/kg), rat plasma, labelled substance = analyte, individual rats No1-No5, read-out: Tmax (converted)): 15 min
- AUC(0-t) (male, Sprague-Dawley, rat, plasma, po, 50 mg/kg, IQ group (oral IQ 50 mg/kg), rat plasma, labelled substance = analyte, mean of 5 rats, read-out: AUC(0-t) (converted)): 287 ng·h/mL
- CL/F (male, Sprague-Dawley, rat, plasma, po, 50 mg/kg, IQ group (oral IQ 50 mg/kg), rat plasma, labelled substance = analyte, mean of 5 rats, read-out: CLz/F): 2910 mL/min/kg
- Cmax (male, Sprague-Dawley, rat, plasma, po, 50 mg/kg, IQ group (oral IQ 50 mg/kg), rat plasma, labelled substance = analyte, mean of 5 rats, read-out: Cmax): 348 ng/mL
- MRT last (male, Sprague-Dawley, rat, plasma, po, 50 mg/kg, IQ group (oral IQ 50 mg/kg), rat plasma, labelled substance = analyte, mean of 5 rats, read-out: MRT(0-t) (converted)): 40.6 min
- Tmax (male, Sprague-Dawley, rat, plasma, po, 50 mg/kg, IQ group (oral IQ 50 mg/kg), rat plasma, labelled substance = analyte, mean of 5 rats, read-out: Tmax (converted)): 27 min
- half-life (male, Sprague-Dawley, rat, plasma, po, 50 mg/kg, IQ group (oral IQ 50 mg/kg), rat plasma, labelled substance = analyte, mean of 5 rats): 42.6 min
- AUC(0-t) (male, Sprague-Dawley, rat, plasma, po, 50 mg/kg, IQ group: oral IQ 50 mg/kg, rat plasma, mean ± SD, n = 5, read-out: AUC0−t (converted)): 287 ng·h/mL
- Cmax (male, Sprague-Dawley, rat, plasma, po, 50 mg/kg, IQ group: oral IQ 50 mg/kg, rat plasma, mean ± SD, n = 5, read-out: Cmax): 350 ± 110 ng/mL
- MRT last (male, Sprague-Dawley, rat, plasma, po, 50 mg/kg, IQ group: oral IQ 50 mg/kg, rat plasma, mean ± SD, n = 5, read-out: MRT0−t (converted)): 40.6 min
- Tmax (male, Sprague-Dawley, rat, plasma, po, 50 mg/kg, IQ group: oral IQ 50 mg/kg, rat plasma, mean ± SD, n = 5, read-out: Tmax (converted)): 27 min
- half-life (male, Sprague-Dawley, rat, plasma, po, 50 mg/kg, IQ group: oral IQ 50 mg/kg, rat plasma, mean ± SD, n = 5): 42.6 ± 27.9 min
